# Assay results reported in patent US8952176B2, “Heterocyclic compound having type I 11 β hydroxysteroid dehydrogenase inhibitory activity” (Shionogi & Co., Ltd., priority 2005, dated 2015).
# Legend:
# [1] = target: recombinant human 11β-HSD1 (Homo sapiens, UniProt P28845); assay: Enzyme activity assay on human 11β-HSD1 (HTRF cortisol); format: biochemical; conditions: recombinant human 11β-HSD1, 5 μM cortisone, 2 hours at 37° C.
# Method: Evaluation of 11β-HSD1 Inhibitors (Enzyme Activity Assay on Human 11β-HSD1)
# Enzymatic activity for human 11β-HSD1 was determined in a 10 μl final volume of assay mixture containing 50 mM sodium phosphate buffer (pH 7.6), 1 mg/ml bovine serum albumin, 0.42 mg/ml NADPH, 1.26 mg/ml glucose-6-phosphate, glucose-6-phosphate dehydrogenase, test compound, recombinant human 11β-HSD1, and 5 μM cortisone as substrate. The reaction was started with the addition of cortisone. After incubation for 2 hours at 37° C., 5 μl of europium cryptate-labelled anti-cortisol antibody and 5 μl of XL665-labeled cortisol were added. After further incubation for 2 hours at room temperature, the homogeneous time-resolved fluorescence (HTRF) signal was measured. The cortisol production was quantitated by a standard curve generated with several known concentrations of cortisol in each assay.
# (§1) The amount of cortisol production without compounds was served as control, and the percent inhibition by test compound at each concentration was calculated. The IC50 value of the compound for 11β-HSD1 was obtained using the inhibition curve generated by plotting the percent inhibition versus the concentration of text compound.
# [2] = target: recombinant mouse 11β-HSD1 (Mus musculus, UniProt P50172); assay: Enzyme activity assay on mouse 11β-HSD1 (HTRF corticosterone); format: biochemical; conditions: recombinant mouse 11β-HSD1, 11-dehydrocorticosterone substrate, 2 hours at 37° C.
# Method: […] (Enzyme Activity Assay on Mouse 11β-HSD1)
# Enzymatic activity for mouse 11β-HSD1 activity was determined in a 10 μl final volume of assay mixture containing 50 mM sodium phosphate buffer (pH 7.6), 1 mg/ml bovine serum albumin, 0.042 mg/ml NADPH, 1.26 mg/ml glucose-6-phosphate, glucose-6-phosphate dehydrogenase, test compound, recombinant mouse 11β-HSD1, and […] 11-dehydrocorticosterone as substrate. The reaction was started with the addition of 11-dehydrocorticosterone. After incubation for 2 hours at 37° C., 5 μl of europium cryptate-labelled anti-cortisol antibody and 5 μl of XL665-labeled cortisol were added. After further incubation for 2 hours at room temperature, the HTFR signal was measured. The corticosterone production was quantitated by a standard curve generated with several known concentrations of corticosterone in each assay.
# as §1, with “Corticosterone” for “The amount of cortisol”, “by” for “by test”, “test” for “text”
# recombinant mouse 11β-HSD1, sequence (P50172 whole entry): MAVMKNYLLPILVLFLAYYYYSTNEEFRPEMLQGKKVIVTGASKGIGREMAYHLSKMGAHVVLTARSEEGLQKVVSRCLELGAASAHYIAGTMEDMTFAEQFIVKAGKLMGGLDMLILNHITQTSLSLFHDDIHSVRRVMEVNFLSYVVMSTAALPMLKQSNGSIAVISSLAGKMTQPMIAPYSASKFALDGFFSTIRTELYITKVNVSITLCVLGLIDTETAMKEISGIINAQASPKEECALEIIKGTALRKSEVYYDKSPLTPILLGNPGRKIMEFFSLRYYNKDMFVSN
# recombinant human 11β-HSD1, sequence (P28845 whole entry): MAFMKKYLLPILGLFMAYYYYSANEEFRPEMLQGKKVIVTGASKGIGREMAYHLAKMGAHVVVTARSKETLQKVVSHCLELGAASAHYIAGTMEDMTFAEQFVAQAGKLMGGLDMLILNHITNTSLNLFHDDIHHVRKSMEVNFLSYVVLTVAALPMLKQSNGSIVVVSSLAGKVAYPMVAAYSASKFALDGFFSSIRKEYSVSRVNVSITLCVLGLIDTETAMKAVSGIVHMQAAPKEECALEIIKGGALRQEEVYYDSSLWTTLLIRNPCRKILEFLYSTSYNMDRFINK
IC50 [1] [nM],IC50 [2] [µM],SMILES
80,6,Cc1noc(C(=O)NC23CC4CC(CC(C4)C2)C3)c1SC1CCCCC1 [Compound A-12]
93,5.9,COc1noc(C(=O)c2ccccc2)c1S(=O)(=O)c1ccccc1 [Compound A-20]
16,11.6,Cc1noc(C(=O)c2ccccc2)c1SC1CCCCC1 [Compound A-15]
84,21,Cc1noc(C(=O)NC23CC4CC(CC(C4)C2)C3)c1Sc1ccccc1 [Compound A-1]
15,21,Cc1noc(C(=O)NC23CC4CC(CC(C4)C2)C3)c1SC1CCCCCC1 [Compound A-21]
